Measurements: article PMC12316308, “Interactions of substrates and phosphinyl containing inhibitors with bacterial and human zinc proteases” (PLOS One, 2025)
Values joined by “and” are separate entries in the source; they are usually repeats but may differ in a detail not shown here. Equal entries are not always repeated. Where two headings read alike, the source gives them in different places.

Key:
Assay type in all cases: biochemical
[1] = biological target: T1, human MT1-MMP/MMP-14 (catalytic domain) (Homo sapiens, UniProt P50281); assay: Enzyme inhibition kinetics, fluorogenic substrate ES001; conditions: MMP-14; for remaining activity at 100 µM: 100 µM inhibitor
T1 construct: human MT1-MMP/MMP-14 (catalytic domain); purchased Calbiochem (San Diego, CA, USA)
Method: (§1) Determination of reaction velocities. The substrate ES001 was used for APMA activated MMP-9 (MMP-9(A)), Mag-Trypsin activated MMP-9 (MMP-9(MT)) and MMP-14, while the substrate ES005 was used for ALN, PLN and TLN. The reaction velocities/initial rates (v) were determined at 37°C, at an excitation wavelength of 320 nm and an emission wavelength of 405 nm with a slit width of 10 nm using either a Perkin Elmer LS 50 Luminescence spectrometer and the FL WinLab Software Package (Perkin Elmer) or a Clario Star micro plate reader (CLARIOstar® BMG LABTECH).
(§2) The phosphinic compounds were dissolved in 100% DMSO to a final concentration of 10 mM. In all assays, a fixed substrate concentration of 4.0 µM was used in a total volume of 100 µL 0.1 M Hepes pH 7.5, 10 mM CaCl2, 0.005% Brij-35 and 1.0% DMSO. Fixed enzyme concentrations were as follows; 0.05 nM MMP-9(A), 0.05 nM MMP-9(MT), 1.0 nM MMP-14, 1.4 nM ALN, 0.5 nM PLN and 0.21 nM TLN. Time dependent inhibitory experiments, with and without 100 μM of phosphinic compounds, were performed as follows: Compounds were either pre-incubated with proteases for 15 and 30 minutes at room temperature before initiating the enzymatic reaction by adding the substrate, or not pre-incubated, meaning the reaction was initiated by adding the protease to the mixture of substrate and compound. Control tests without the compound present were performed under the same conditions. Reactions were monitored for 30 minutes at 37°C.
(§3) Determination of IC50 and Ki values. […] A fixed substrate concentration and the same enzyme and buffer conditions as described above were used. Enzymes, with or without inhibitors, were either pre-incubated for 30 minutes at room temperature or not pre-incubated, and initial rate assays were performed as described above. Assays were performed using a Clario Star microplate reader. The IC50 values with corresponding s.d. were calculated with GraphPad Prism 5 using equation 1 or 2, depending on the concentration range of the phosphinic compounds.
(§4) Equation 3 describe the relationship between IC50 and Ki values for substrate competitive inhibitors, considering the fixed substrate concentration and the enzyme’s Km value for the substrate: […]

[2] = biological target: T2, APMA activated MMP-9 (MMP-9(A)) (Homo sapiens, UniProt P14780); assay: as above; conditions: rMMP-9 (APMA activated); for remaining activity at 100 µM: 100 µM inhibitor
T2 construct: made in house; host or cells: Sf9 and High Five insect cells
T2 sequence (P14780 107-707 limits assumed): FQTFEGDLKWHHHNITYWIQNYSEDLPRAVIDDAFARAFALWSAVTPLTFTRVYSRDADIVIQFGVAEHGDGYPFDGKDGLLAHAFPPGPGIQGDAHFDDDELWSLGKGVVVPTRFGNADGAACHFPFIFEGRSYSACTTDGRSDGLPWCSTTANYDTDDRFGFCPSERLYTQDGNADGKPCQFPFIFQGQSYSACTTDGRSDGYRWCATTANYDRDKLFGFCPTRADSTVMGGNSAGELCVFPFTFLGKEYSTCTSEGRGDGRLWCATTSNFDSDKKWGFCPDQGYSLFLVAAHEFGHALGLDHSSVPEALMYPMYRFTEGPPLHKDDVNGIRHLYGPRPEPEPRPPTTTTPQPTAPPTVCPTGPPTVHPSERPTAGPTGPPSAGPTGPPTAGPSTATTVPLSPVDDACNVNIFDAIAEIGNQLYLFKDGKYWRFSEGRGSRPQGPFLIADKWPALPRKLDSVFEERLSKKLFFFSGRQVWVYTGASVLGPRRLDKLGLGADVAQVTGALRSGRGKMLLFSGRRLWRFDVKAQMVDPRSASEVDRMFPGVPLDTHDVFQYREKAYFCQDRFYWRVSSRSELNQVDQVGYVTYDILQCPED
Method: (§5) The expression of recombinant full length proMMP-9 (rpMMP-9) in Sf9 and High Five insect cells and the purification were performed as previously described. The amount of proMMP-9 was estimated spectrophotometrically at 280 nm using ε280nm = […] [46] for the full length enzyme. Activation of the recombinant proMMP-9 was performed with APMA (auto-activation) and Mag-Trypsin as previously described, while the amount of active MMP-9 was determined by active site titration using galardin, also described previously.
as §1, §2, §3, §4

[3] = biological target: T3, Mag-Trypsin activated MMP-9 (MMP-9(MT)) (Homo sapiens, UniProt P14780); assay: as above; conditions: rMMP-9 (Mag-trypsin activated); for remaining activity at 100 µM: 100 µM inhibitor
T3 construct: made in house; host or cells: Sf9 and High Five insect cells
T3 sequence (P14780 107-707 limits assumed): as above
Method: as §5, §1, §2, §3, §4

[4] = biological target: T4, aureolysin (ALN) (Staphylococcus aureus, UniProt P81177); assay: Enzyme inhibition kinetics, fluorogenic substrate ES005; conditions: for remaining activity at 100 µM: 100 µM inhibitor
T4 construct: purchased BioCentrum Ltd (Kraków, Poland)
T4 sequence (P81177 209-509): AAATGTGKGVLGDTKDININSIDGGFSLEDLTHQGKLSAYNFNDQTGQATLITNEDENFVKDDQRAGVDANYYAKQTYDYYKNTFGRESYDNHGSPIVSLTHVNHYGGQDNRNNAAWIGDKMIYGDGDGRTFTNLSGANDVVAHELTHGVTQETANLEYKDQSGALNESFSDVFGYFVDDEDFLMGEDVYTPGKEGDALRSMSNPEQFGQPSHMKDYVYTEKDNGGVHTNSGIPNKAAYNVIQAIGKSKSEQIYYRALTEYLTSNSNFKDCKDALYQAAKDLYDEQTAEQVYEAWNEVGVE
Method: as §1, §2, §3, §4

[5] = biological target: T5, pseudolysin (PLN, LasB) (Pseudomonas aeruginosa, UniProt P14756); assay: as above; conditions: for remaining activity at 100 µM: 100 µM inhibitor
T5 construct: purchased Calbiochem (San Diego, CA, USA)
T5 sequence (P14756 198-498): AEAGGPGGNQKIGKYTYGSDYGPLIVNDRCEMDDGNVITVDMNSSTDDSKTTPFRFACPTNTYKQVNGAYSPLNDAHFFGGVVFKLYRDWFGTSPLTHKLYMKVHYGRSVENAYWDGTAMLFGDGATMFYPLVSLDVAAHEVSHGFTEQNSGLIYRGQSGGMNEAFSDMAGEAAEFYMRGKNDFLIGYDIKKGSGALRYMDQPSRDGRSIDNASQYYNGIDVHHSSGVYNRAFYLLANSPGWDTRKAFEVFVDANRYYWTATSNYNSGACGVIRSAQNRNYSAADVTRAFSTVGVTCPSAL
Method: as §1, §2, §3, §4

[6] = biological target: T6, thermolysin (TLN) (Bacillus thermoproteolyticus, UniProt P00800); assay: as above; conditions: for vi/v0 avg (time dependent inhibition, Supplementary Figure S8): Thermolysin, inhibitor 100 µM
T6 construct: purchased Calbiochem (San Diego, CA, USA)
T6 sequence (P00800 233-548): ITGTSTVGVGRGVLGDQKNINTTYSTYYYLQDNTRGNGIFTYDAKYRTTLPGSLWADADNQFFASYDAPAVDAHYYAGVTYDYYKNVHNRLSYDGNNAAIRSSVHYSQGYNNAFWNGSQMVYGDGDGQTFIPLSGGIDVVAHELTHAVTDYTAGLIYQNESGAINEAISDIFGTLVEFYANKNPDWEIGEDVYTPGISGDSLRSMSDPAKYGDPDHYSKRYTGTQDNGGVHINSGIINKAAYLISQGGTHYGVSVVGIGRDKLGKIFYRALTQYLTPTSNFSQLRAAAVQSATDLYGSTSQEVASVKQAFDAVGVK
Method: as §1, §2, §3, §4

[7] = 0.25 h, 15 min pre incubation, read-out: vi/v0 (single replicate)
[8] = 0.25 h, 15 min pre incubation, read-out: vi/v0 avg
[9] = 0.5 h, 30 min pre incubation, read-out: vi/v0 avg
[10] = no preincubation, read-out: vi/v0 (single replicate)
[11] = no preincubation, read-out: vi/v0 avg
[12] = inhibitor 100 μM, preincubation 0 min
[13] = inhibitor 100 μM, preincubation 15 min
[14] = inhibitor 100 μM, preincubation 30 min
[15] = 0.5 h, 30 min pre incubation, read-out: vi/v0 (single replicate)
[16] = inhibitor 100 μM, average over 0, 15, 30 min preincubation

CCOC(=O)C(CO)CP(=O)(O)C(Cc1ccccc1)NC(=O)OCc1ccccc1 (stereo not drawn) [H5]
remaining activity at 100 µM [1, 7]: 87.2%
remaining activity at 100 µM [1, 8]: 88.7%
remaining activity at 100 µM [1, 9]: 96.8%
remaining activity at 100 µM [1, 10]: 96.3%
remaining activity at 100 µM [1, 11]: 98.5%
vi/v0 Av (bar diagram figure 7) ([1]; inhibitor 100 μM, average over preincubation times): 0.9417
vi/v0 (relative enzyme activity with inhibitor), single determinations [1, 12]: 0.9629 and 1.0076
vi/v0 (relative enzyme activity with inhibitor), single determinations [1, 13]: 0.8725 and 0.8868 and 0.9012
vi/v0 (relative enzyme activity with inhibitor), single determinations [1, 14]: 1.138 and 0.953 and 0.8121
remaining activity at 100 µM [2, 8]: 102%
remaining activity at 100 µM [2, 15]: 77.7%
remaining activity at 100 µM [2, 9]: 83.7%
remaining activity at 100 µM [2, 11]: 100%
vi/v0 Av (bar diagram figure 7) [2, 16]: 0.9644
vi/v0 (relative enzyme activity with inhibitor), single determinations [2, 12]: 1.202 and 0.9509 and 1.0525 and 0.8
vi/v0 (relative enzyme activity with inhibitor), single determinations [2, 13]: 1.106 and 1.228 and 0.879 and 0.8791
vi/v0 (relative enzyme activity with inhibitor), single determinations [2, 14]: 0.7771 and 0.9097 and 0.824
remaining activity at 100 µM [3, 7]: 87.3%
remaining activity at 100 µM [3, 8]: 84.8%
remaining activity at 100 µM [3, 15]: 86.9%
remaining activity at 100 µM [3, 9]: 88.1%
remaining activity at 100 µM [3, 10]: 88.4%
remaining activity at 100 µM [3, 11]: 88.5%
vi/v0 Av (bar diagram figure 7) [3, 16]: 0.8694
vi/v0 (relative enzyme activity with inhibitor), single determinations [3, 12]: 0.8838 and 0.8693 and 0.8452 and 0.9405
vi/v0 (relative enzyme activity with inhibitor), single determinations [3, 13]: 0.8726 and 0.9039 and 0.8256 and 0.7918
vi/v0 (relative enzyme activity with inhibitor), single determinations [3, 14]: 0.8689 and 0.8925
remaining activity at 100 µM ([4]; 0.25 h, read-out: vi/v0 (single replicate), Aureolysin, 15 min pre incubation): 84.1%
remaining activity at 100 µM ([4]; 0.25 h, read-out: vi/v0 avg, Aureolysin, 15 min pre incubation): 89.9%
remaining activity at 100 µM ([4]; 0.5 h, read-out: vi/v0 (single replicate), Aureolysin, 30 min pre incubation): 89.6%
remaining activity at 100 µM ([4]; 0.5 h, read-out: vi/v0 avg, Aureolysin, 30 min pre incubation): 87.3%
vi/v0 Av (bar diagram figure 7) ([4]; Aureolysin (ALN), inhibitor 100 μM, average over 0, 15, 30 min preincubation): 0.8959
vi/v0 (relative enzyme activity with inhibitor), single determinations ([4]; Aureolysin (ALN), inhibitor 100 μM, preincubation 0 min): 0.8465 and 0.9473 and 0.9691 and 0.8995
vi/v0 (relative enzyme activity with inhibitor), single determinations ([4]; Aureolysin (ALN), inhibitor 100 μM, preincubation 15 min): 0.8412 and 0.9365 and 0.9386 and 0.8803
vi/v0 (relative enzyme activity with inhibitor), single determinations ([4]; Aureolysin (ALN), inhibitor 100 μM, preincubation 30 min): 0.8961 and 0.824 and 0.8612 and 0.9107
remaining activity at 100 µM ([4]; read-out: vi/v0 (single replicate), Aureolysin, no preincubation): 84.6%
remaining activity at 100 µM ([4]; read-out: vi/v0 avg, Aureolysin, no preincubation): 91.6%
remaining activity at 100 µM ([5]; 0.25 h, read-out: vi/v0 (single replicate), Pseudolysin, 15 min pre incubation): 83.9%
remaining activity at 100 µM ([5]; 0.25 h, read-out: vi/v0 avg, Pseudolysin, 15 min pre incubation): 86.2%
remaining activity at 100 µM ([5]; 0.5 h, read-out: vi/v0 (single replicate), Pseudolysin, 30 min pre incubation): 86.3%
remaining activity at 100 µM ([5]; 0.5 h, read-out: vi/v0 avg, Pseudolysin, 30 min pre incubation): 75.4%
vi/v0 Av (bar diagram figure 7) ([5]; Pseudolysin (PLN), inhibitor 100 μM, average over 0, 15, 30 min preincubation): 0.86
vi/v0 (relative enzyme activity with inhibitor), single determinations ([5]; Pseudolysin (PLN), inhibitor 100 μM, preincubation 0 min): 1.071 and 0.9333 and 0.8899
vi/v0 (relative enzyme activity with inhibitor), single determinations ([5]; Pseudolysin (PLN), inhibitor 100 μM, preincubation 15 min): 0.8394 and 0.8848
vi/v0 (relative enzyme activity with inhibitor), single determinations ([5]; Pseudolysin (PLN), inhibitor 100 μM, preincubation 30 min): 0.863 and 0.6659 and 0.7323
remaining activity at 100 µM ([5]; read-out: vi/v0 (single replicate), Pseudolysin, no preincubation): 107%
remaining activity at 100 µM ([5]; read-out: vi/v0 avg, Pseudolysin, no preincubation): 96.5%
vi/v0 Av (bar diagram figure 7) ([6]; Thermolysin (TLN), inhibitor 100 μM, average over 0, 15, 30 min preincubation): 1.046
vi/v0 (relative enzyme activity with inhibitor), single determinations ([6]; Thermolysin (TLN), inhibitor 100 μM, preincubation 0 min): 1.137 and 1.068 and 1.02 and 1.001
vi/v0 (relative enzyme activity with inhibitor), single determinations ([6]; Thermolysin (TLN), inhibitor 100 μM, preincubation 15 min): 1.051 and 0.8192 and 1.086 and 1.159
vi/v0 (relative enzyme activity with inhibitor), single determinations ([6]; Thermolysin (TLN), inhibitor 100 μM, preincubation 30 min): 1.144 and 1.0013 and 1.003 and 1.066
vi/v0 avg (time dependent inhibition, Supplementary Figure S8) ([6]; 15 min pre incubation): 1.029
vi/v0 avg (time dependent inhibition, Supplementary Figure S8) ([6]; 30 min pre incubation): 1.054
vi/v0 avg (time dependent inhibition, Supplementary Figure S8) ([6]; No preincubation): 1.056
